Experimental data published in patent US20240067662A1, “KRAS INHIBITORS” (Bristol-Myers Squibb Company, priority 2022, published 2024).

Target: GMPPNP-loaded KRAS G12C (Homo sapiens, UniProt P01116, G12C)
Assay: KRAS G12C RAF Disruption Assay (HTRF)
Type: biochemical
Settings: recombinant GMPPNP-loaded KRAS G12C (5 nM), 20 min with compound; GST-RAF1 RBD (9 nM); HTRF signal; read-out: KRASG12C RAF Disruption Assay (IC50)
Experimental: KRAS^G12C RAF Disruption Assay
This is a functional assay that measures activity of compounds against KRAS-G12C^(ON), i.e., the active form of KRAS G12C. Recombinant GMPPNP-loaded KRAS G12C (5 nM) was treated with compound at room temperature for 20 minutes in assay buffer (50 mM Tris pH 7.5, 100 mM NaCl, 1 mM MgCl2, 1 mM DTT, 100ug/ml BSA). Recombinant GST-RAF1 RBD (9 nM) was added, and the reaction mixture was incubated for 20 minutes. SA-Tb (0.25 nM) was added, and the reaction mixture was incubated for 3 hours. HTRF signal was measured (PerkinElmer Envision), the signal ratio (λem 520/λem 495) was calculated, and IC50 values were calculated from the dose-response curve.

Row | Compound | IC50
1 | CN1CCC[C@H]1COc1nc(N2CCN(C(=O)/C(F)=C/c3ccccn3)[C@@H](CC#N)C2)c2cnc(-c3cccc4ccccc34)c(F)c2n1 [Compound 19B, 2-((S)-4-(8-fluoro-2-(((S)-1-methylpyrrolidin-2-yl)methoxy)-7-(naphthalen-1-yl)pyrido[4,3-d]pyrimidin-4-yl)-1-((Z)-2-fluoro-3-(pyridin-2-yl)acryloyl)piperazin-2-yl)acetonitrile] | 270 nM
2 | C#Cc1cccc2cccc(-c3ncc4c(N5CCN(C(=O)/C(F)=C/c6nccs6)C[C@H]5C)nc(OC[C@@]56CCCN5C[C@H](F)C6)nc4c3F)c12 [Example 76, (Z)-1-((3R)-4-(7-(8-ethynylnaphthalen-1-yl)-8-fluoro-2-(((2R, 7aS)-2-fluorotetrahydro-1H-pyrrolizin-7a(5H)-yl)methoxy)pyrido[4,3-d]pyrimidin-4-yl)-3-methylpiperazin-1-yl)-2-fluoro-3-(thiazol-2-yl)prop-2-en-1-one] | 590 nM
3 | N#Cc1cccc2[nH]cc(-c3ncc4c(N5CCN(C(=O)/C(F)=C/c6nccs6)CC5)nc(OC[C@@]56CCCN5C[C@H](F)C6)nc4c3F)c12 [Compound 134, 3-(8-fluoro-4-(4-((Z)-2-fluoro-3-(thiazol-2-yl)acryloyl)piperazin-1-yl)-2-(((2R, 7aS)-2-fluorotetrahydro-1H-pyrrolizin-7a(5H)-yl)methoxy)pyrido[4,3-d]pyrimidin-7-yl)-1H-indole-4-carbonitrile] | 970 nM
4 | C#Cc1c(F)ccc2cc(O)cc(-c3ncc4c(N5CC6CCC(C5)N6C(=O)/C(Cl)=C/c5ccccn5)nc(OC[C@@]56CCCN5C[C@H](F)C6)nc4c3F)c12 [Compound 8, (Z)-1-((1R, 5S)-3-(7-(8-ethynyl-7-fluoro-3-hydroxynaphthalen-1-yl)-8-fluoro-2-(((2R, 7aS)-2-fluorotetrahydro-1H-pyrrolizin-7a(5H)-yl)methoxy)pyrido[4,3-d]pyrimidin-4-yl)-3,8-diazabicyclo[3.2.I]octan-8-yl)-2-chloro-3-(pyridin-yl)prop-2-en-1-one] | 1300 nM
5 | C#Cc1c(F)ccc2cc(O)cc(-c3ncc4c(N5C[C@H]6CC[C@@H](C5)N6C(=O)/C(F)=C/c5ncccn5)nc(OC[C@@]56CCCN5C[C@H](F)C6)nc4c3F)c12 [Compound 7, (Z)-1-((1R, 5S)-3-(7-(8-ethynyl-7-fluoro-3-hydroxynaphthalen-1-yl)-8-fluoro-2-(((2R, 7aS)-2-fluorotetrahydro-1H-pyrrolizin-7a(5H)-yl)methoxy)pyrido[4,3-d]pyrimidin-4-yl)-3,8-diazabicyclo[3.2.1]octan-8-yl)-2-fluoro-3-(pyrimidin-yl)prop-2-en-1-one] | 16 nM
6 | C#Cc1c(F)ccc2cc(O)cc(-c3ncc4c(N5CCN(C(=O)/C(F)=C/c6ccccn6)CC5)nc(OC[C@]56CCC[C@H]5N(C)CCC6)nc4c3F)c12 [Example 59, (Z)-1-(4-(7-(8-ethynyl-7-fluoro-3-hydroxynaphthalen-1-yl)-8-fluoro-2-(((4aS, 7aR)-1-methyloctahydro-4aH-cyclopenta[b]pyridin-4a-yl)methoxy)pyrido[4,3-d]pyrimidin-4-yl)piperazin-1-yl)-2-fluoro-3-(pyridin-2-yl)prop-2-en-1-one] | 2 nM
7 | C#Cc1cccc2cccc(-c3ncc4c(N5CCC6(CCN6C(=O)/C(F)=C/c6ccccn6)C5)nc(OC[C@@]56CCCN5C[C@H](F)C6)nc4c3F)c12 (single isomer, unassigned) [Compound 102] | 87 nM
8 | (Z)-1-(4-(7-(2-amino-7-fluorobenzo[d]thiazol-4-yl)-8-fluoro-2-(((2R, 7aS)-2-fluorotetrahydro-1H-pyrrolizin-7a(5H)-yl)methoxy)pyrido[4,3-d]pyrimidin-4-yl)piperazin-1-yl)-2-fluoro-3-(thiazol-2-yl)prop-2-en-1-one [Example 68] | 220 nM
9 | C#Cc1c(F)ccc2cc(O)cc(-c3ncc4c(N5C[C@H]6CC[C@@H](C5)N6C(=O)/C(F)=C/c5cccnn5)nc(OC[C@@]56CCCN5C[C@H](F)C6)nc4c3F)c12 [Compound 12, (Z)-1-((1R, 5S)-3-(7-(8-ethynyl-7-fluoro-3-hydroxynaphthalen-1-yl)-8-fluoro-2-(((2R, 7aS)-2-fluorotetrahydro-1H-pyrrolizin-7a(5H)-yl)methoxy)pyrido[4,3-d]pyrimidin-4-yl)-3,8-diazabicyclo[3.2.1]octan-8-yl)-2-fluoro-3-(pyridazin-3-yl)prop-2-en-1-one] | 11 nM
10 | N#CC[C@H]1CN(c2nc(OC[C@@]34CCCN3C[C@H](F)C4)nc3c(F)c(-c4cc(O)ccc4C(F)(F)F)ncc23)CCN1C(=O)/C(F)=C/c1nccs1 [Compound 95, 2-((S)-4-(8-fluoro-2-(((2R, 7aS)-2-fluorotetrahydro-1H-pyrrolizin-7a(5H)-yl)methoxy)-7-(5-hydroxy-2-(trifluoromethyl)phenyl)pyrido[4,3-d]pyrimidin-4-yl)-1-((Z)-2-fluoro-3-(thiazol-2-yl)acryloyl)piperazin-2-yl)acetonitrile] | 14 nM
11 | C#Cc1c(F)ccc2cc(O)cc(-c3ncc4c(N5CCN(C(=O)/C(F)=C/c6ncccn6)CC5)nc(OC[C@@]56CCCN5C[C@H](F)C6)nc4c3F)c12 [Example 57, (Z)-1-(4-(7-(8-ethynyl-7-fluoro-3-hydroxynaphthalen-1-yl)-8-fluoro-2-(((2R, 7aS)-2-fluorotetrahydro-1H-pyrrolizin-7a(5H)-yl)methoxy)pyrido[4,3-d]pyrimidin-4-yl)piperazin-1-yl)-2-fluoro-3-(pyrimidin-2-yl)prop-2-en-1-one] | 4 nM
12 | N#CC[C@H]1CN(c2nc(OC[C@@]34CCCN3C[C@H](F)C4)nc3c(F)c(-c4cccc(O)c4)ncc23)CCN1C(=O)/C(F)=C/c1nccs1 [Example 72, 2-((S)-4-(8-fluoro-2-(((2R, 7aS)-2-fluorotetrahydro-1H-pyrrolizin-7a(5H)-yl)methoxy)-7-(3-hydroxyphenyl)pyrido[4,3-d]pyrimidin-4-yl)-1-((Z)-2-fluoro-3-(thiazol-2-yl)acryloyl)piperazin-2-yl)acetonitrile] | 440 nM
13 | C#Cc1cccc2cccc(-c3ncc4c(N5CCN(C(=O)/C(F)=C/c6nccs6)C[C@@H]5C)nc(OC[C@@]56CCCN5C[C@H](F)C6)nc4c3F)c12 [Example 62, (Z)-1-((S)-4-(7-(8-ethynylnaphthalen-1-yl)-8-fluoro-2-(((2R, 7aS)-2-fluorotetrahydro-1H-pyrrolizin-7a(5H)-yl)methoxy)pyrido[4,3-d]pyrimidin-4-yl)-3-methylpiperazin-1-yl)-2-fluoro-3-(thiazol-2-yl)prop-2-en-1-one] | 300 nM
14 | N#CC[C@H]1CN(c2nc(OC[C@@]34CCCN3C[C@H](F)C4)nc3c(F)c(-c4cc(F)ccc4C(F)(F)F)ncc23)CCN1C(=O)/C(F)=C/c1nccs1 [Example 45, 2-((S)-1-((Z)-2-fluoro-3-(thiazol-2-yl)acryloyl)-4-(8-fluoro-7-(5-fluoro-2-(trifluoromethyl)phenyl)-2-(((2R, 7aS)-2-fluorotetrahydro-1H-pyrrolizin-7a(5H)-yl)methoxy)pyrido[4,3-d]pyrimidin-4-yl)piperazin-2-yl)acetonitrile] | 460 nM
